# Measurements taken from patent US20260258017A1, “CO-CRYSTAL FORMS OF SELINEXOR” (Karyopharm Therapeutics Inc., priority 2019, published 2026).
# What was measured:
# [1] = comparison statement for selinexor itself; no medium given; cited from earlier work
# [2] = DVS moisture sorption isotherm; type: physicochemical; details: 25° C., 0-90% RH, 10% RH intervals
# Procedure: Sorption isotherms are obtained using a TA Instruments Q5000 SA DVS. The sample temperature is maintained at 25° C. by the instrument controls. The humidity is controlled by mixing streams of dry and wet nitrogen, with a total flow rate of 200 ml/min. The relative humidity is measured by a calibrated probe (dynamic range of […]), located near the sample. The weight change, (mass relaxation) of the sample as a function of % RH is constantly monitored by a microbalance (accuracy 0.0001 mg). Typically, 3-10 mg of sample is placed in a tared mesh stainless steel basket under ambient conditions. The sample is loaded and unloaded at 50% RH and 25° C. (typical room conditions). A moisture sorption isotherm is performed as outlined below (2 scans per complete cycle). The standard isotherm is performed at 25° C. at 10% RH intervals over a 0-90% RH range. Typically, a triple cycle is carried out. Data analysis is carried out using TA Instruments Universal Analysis 2000. [table]
compound,measurement,setting,value
"O=C(/C=C\n1cnc(-c2cc(C(F)(F)F)cc(C(F)(F)F)c2)n1)NNc1cnccn1 [selinexor, (Z)-3-(3-(3,5-bis(trifluoromethyl)phenyl)-IH-I,2,4-triazol-1-yl)-N′-(pyrazin-2yl)acrylohydrazide]",solubility,[1],low solubility
same,DVS water adsorption,[2],does not adsorb water
